Results published in patent US20030134842A1, “METHODS FOR THE TREATMENT OR PREVENTION OF INFLAMMATORY DISEASES CHARACTERIZED BY ABNORMAL CELL PROLIFERATION” (priority 1997, published 2003).
Where two headings read alike, the source gives them in different places.

Experiments:
[1] = tested on: NIH 3T3 mouse fibroblast cells; test: Mitogenic assay (mitogen-induced cell proliferation); assay type: cell-based; settings: for IC50: mitogen-induced cell proliferation
[2] = target: T1, Ca2+-activated potassium channel (Gardos channel) of erythrocytes (Homo sapiens, UniProt O15554); test: Gardos channel assay; assay type: cell-based; settings: for inhibition at 10 µM: 10 μM compound
T1 construct: endogenous in cells; host or cells: erythrocytes
T1 sequence (O15554 whole entry): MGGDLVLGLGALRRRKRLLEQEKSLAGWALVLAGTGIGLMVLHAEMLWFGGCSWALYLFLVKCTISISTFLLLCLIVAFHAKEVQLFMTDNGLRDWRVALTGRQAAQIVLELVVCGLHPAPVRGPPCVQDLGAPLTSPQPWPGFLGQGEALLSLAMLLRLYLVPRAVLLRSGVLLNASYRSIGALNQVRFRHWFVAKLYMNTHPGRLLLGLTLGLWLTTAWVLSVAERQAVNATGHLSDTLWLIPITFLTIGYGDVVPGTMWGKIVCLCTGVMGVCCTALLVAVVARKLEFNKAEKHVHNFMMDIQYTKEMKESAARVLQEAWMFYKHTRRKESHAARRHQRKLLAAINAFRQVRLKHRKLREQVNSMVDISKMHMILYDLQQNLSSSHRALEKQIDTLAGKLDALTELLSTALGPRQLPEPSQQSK

HeLa = test: SRB antiproliferative assay HeLa; assay type: cell-based; settings: Homo sapiens; HeLa (Cervical), 5% FCS/5 day incubation; read-out: Test Compound IC50
From the text: (§1) The cells were passaged using Trypsin (Gibco).

CaSki = test: SRB antiproliferative assay CaSki; assay type: cell-based; settings: Homo sapiens, Ca-Ski; CaSki (Cervical), 5% FCS/5 day incubation; read-out: Test Compound IC50
From the text: as §1

MDA-MB-23 = test: SRB antiproliferative assay MDA-MB-23; assay type: cell-based
From the text: as §1

MCF7 = test: SRB antiproliferative assay MCF7; assay type: cell-based; settings: Homo sapiens
From the text: as §1

A549 = test: SRB antiproliferative assay A549; assay type: cell-based; settings: Homo sapiens
From the text: as §1

HTB174 = test: SRB antiproliferative assay HTB174; assay type: cell-based; settings: HTB174 (Lung), 5% FCS/5 day incubation; read-out: Test Compound IC50
From the text: as §1

HEPG2 = test: SRB antiproliferative assay HEPG2; assay type: cell-based; settings: Homo sapiens
From the text: as §1

DU-145 = test: SRB antiproliferative assay DU-145; assay type: cell-based; settings: Homo sapiens; DU-145 (Prostate), 5% FCS/5 day incubation; read-out: Test Compound IC50
From the text: as §1

SK-MEL-28 = test: SRB antiproliferative assay SK-MEL-28; assay type: cell-based; settings: Homo sapiens; SK-MEL-28 (Melanoma), 5% FCS/5 day incubation; read-out: Test Compound IC50
From the text: as §1

MMRU = test: SRB antiproliferative assay MMRU; assay type: cell-based; settings: Homo sapiens
From the text: as §1

HT29 = test: SRB antiproliferative assay HT29; assay type: cell-based; settings: Homo sapiens
From the text: as §1

HCT-15 = test: SRB antiproliferative assay HCT-15; assay type: cell-based; settings: Homo sapiens; HCT-15 (Colon), 5% FCS/5 day incubation; read-out: Test Compound IC50
From the text: as §1

ACHN = test: SRB antiproliferative assay ACHN; assay type: cell-based; settings: Homo sapiens; ACHN (Renal), 5% FCS/5 day incubation; read-out: Test Compound IC50
From the text: as §1

U118MG = test: SRB antiproliferative assay U118MG; assay type: cell-based; settings: Homo sapiens, U-118-MG
From the text: as §1

SK-OV-3 = test: SRB antiproliferative assay SK-OV-3; assay type: cell-based; settings: Homo sapiens; SK-OV-3 (Ovary), 5% FCS/5 day incubation; read-out: Test Compound IC50
From the text: as §1

HUVEC = test: SRB assay normal cells HUVEC; assay type: cell-based; settings: HUVEC (Normal human), 5% FCS/5 day incubation; read-out: Test Compound IC50
From the text: as §1

GM = test: SRB assay normal cells GM; assay type: cell-based; settings: GM (Normal human), 5% FCS/5 day incubation; read-out: Test Compound IC50
From the text: as §1

3T3 = test: SRB assay normal cells 3T3; assay type: cell-based; settings: NIH3T3; 3T3 (Normal mouse), 5% FCS/5 day incubation; read-out: Test Compound IC50
From the text: as §1

L929 = test: SRB assay normal cells L929; assay type: cell-based; settings: L929 (Normal mouse), 5% FCS/5 day incubation; read-out: Test Compound IC50
From the text: as §1

[3] = Mus musculus, NIH3T3, NIH 3T3 mouse fibroblast cells
[4] = MDA-MB-23 (Breast), 5% FCS/5 day incubation, read-out: Test Compound IC50
[5] = MCF7 (Breast), 5% FCS/5 day incubation, read-out: Test Compound IC50
[6] = MCF7, 5% FCS/3 days, read-out: Test Compound IC50 Value in Cell Lines
[7] = A549, A549 (Lung), 5% FCS/5 day incubation, read-out: Test Compound IC50
[8] = A549, A549, 5% FCS/3 days, read-out: Test Compound IC50 Value in Cell Lines
[9] = HEPG2 (Hepatocel), 5% FCS/5 day incubation, read-out: Test Compound IC50
[10] = HEPG2, 5% FCS/3 days, read-out: Test Compound IC50 Value in Cell Lines
[11] = MMRU (Melanoma), 5% FCS/5 day incubation, read-out: Test Compound IC50
[12] = MMRU, 5% FCS/3 days, read-out: Test Compound IC50 Value in Cell Lines
[13] = HT-29, HT29 (Colon), 5% FCS/5 day incubation, read-out: Test Compound IC50
[14] = HT-29, HT29, 5% FCS/3 days, read-out: Test Compound IC50 Value in Cell Lines
[15] = U118MG (CNS), 5% FCS/5 day incubation, read-out: Test Compound IC50
[16] = U118MG, 5% FCS/3 days, read-out: Test Compound IC50 Value in Cell Lines
[17] = MDA-MB-23, read-out: Test Compound IC50
[18] = A549 (Lung), 5% FCS/5 day incubation, read-out: Test Compound IC50

| SMILES | IC50 [1, 3] [µM] | IC50 [2] [µM] | inhibition at 10 µM [2] [%] | IC50 (HeLa) [µM] | IC50 (CaSki) [µM] | IC50 (MCF7; [5]) [µM] | IC50 (MCF7; [6]) [µM] | IC50 (HTB174) [µM] | IC50 (HEPG2; [9]) [µM] | IC50 (HEPG2; [10]) [µM] | IC50 (DU-145) [µM] | IC50 (SK-MEL-28) [µM] | IC50 (MMRU; [11]) [µM] | IC50 (HT29; [13]) [µM] | IC50 (HCT-15) [µM] | IC50 (ACHN) [µM] | IC50 (U118MG; [15]) [µM] | IC50 (HUVEC) [µM] | IC50 (GM) [µM] | IC50 (L929) [µM] | also measured |
| --- | --- | --- | --- | --- | --- | --- | --- | --- | --- | --- | --- | --- | --- | --- | --- | --- | --- | --- | --- | --- | --- |
| COc1cccc2c1C(c1ccccc1Cl)c1cc(Cl)ccc1N(C(=O)c1ccc([N+](=O)[O-])cc1)C2 (centres unmarked) [Compound 31] | 0.4 | > 10 | 12.3 | 0.2 | 0.5 | 0.7 | < 1.25 | 0.2 | 0.4 | < 1.25 | 0.9 | 0.3 | 0.2 | 0.2 | 0.3 | 0.8 | 0.4 | 0.8 | > 1 | 0.9 | IC50 (MDA-MB-23; [4]): 0.4 µM; IC50 (A549; [7]): 0.6 µM; IC50 (A549; [8]): < 1.25 µM; IC50 (MMRU; [12]): < 1.25 µM; IC50 (HT29; [14]): < 1.25 µM; IC50 (U118MG; [16]): < 1.25 µM; IC50 (SK-OV-3): 0.6 µM; IC50 (3T3): > 1 µM |
| COc1cc([C@@H]2c3cc4c(cc3[C@@H](O[C@@H]3O[C@@H]5CO[C@@H](C)O[C@H]5[C@H](O)[C@H]3O)[C@H]3COC(=O)[C@H]23)OCO4)cc(OC)c1O [VP-16, Etoposide, reference compound] | – | – | – | < 1.25 | 1.8 | < 1.25 | – | < 1.25 | < 1.25 | – | < 1.25 | < 1.25 | < 1.25 | < 1.25 | 1.3 | < 1.25 | 2.2 | < 1.25 | 1.4 | < 1.25 | IC50 (MDA-MB-23; [17]): < 1.25 µM; IC50 (MCF7; MCF7, 2% FCS/3 days, read-out: Test Compound IC50 Value in Cell Lines): < 2.5 µM; IC50 (A549; [18]): < 1.25 µM; IC50 (A549; A549, 2% FCS/3 days, read-out: Test Compound IC50 Value in Cell Lines): 2.3 µM; IC50 (MMRU; MMRU, 2% FCS/3 days, read-out: Test Compound IC50 Value in Cell Lines): < 2.5 µM; IC50 (HT29; HT-29, HT29, 2% FCS/3 days, read-out: Test Compound IC50 Value in Cell Lines): 20 µM |
| O=C(Oc1ccccc1)N1Cc2ccccc2C(c2ccccc2Cl)c2ccccc21 (centres unmarked) [Compound 26, N-phenoxycarbonyl-11-(2′-chlorophenyl)-5,6-dihydro-11H-dibenz[b,e]azepine] | 0.04 to 0.9 | > 10 | 0.8 | – | – | – | 5.9 | – | – | 5.4 | – | – | – | – | – | – | – | – | – | – | IC50 (A549; [8]): 7 µM; IC50 (MMRU; [12]): 4.9 µM; IC50 (HT29; [14]): 7.2 µM; IC50 (U118MG; [16]): 5.7 µM; melting point: 95 to 99 °C |
| O=C(c1ccc([N+](=O)[O-])cc1)N1Cc2ccccc2C(c2ccccc2Cl)c2ccccc21 (centres unmarked) [Compound 28, N-(4′-nitrobenzoyl)-11-(2′-chlorophenyl)-5,6-dihydro-11H-dibenz[b,e]azepine] | – | – | 0 | 0.3 | 0.5 | 0.6 | 2.1 | 0.1 | 0.3 | < 1.25 | 0.9 | 0.4 | 0.2 | 0.3 | 0.4 | 0.7 | 0.5 | 0.7 | 0.9 | 0.6 | Mitogenic Assay Inhibition ([1]; 10 µM compound, NIH 3T3 mouse fibroblast cells): 99.0%; IC50 ([1]; NIH3T3, NIH 3T3 mouse fibroblast cells): 0.04 to 0.5 µM; IC50 (MDA-MB-23; [17]): 0.5 µM; IC50 (A549; [18]): 0.8 µM; IC50 (A549; A549, 5% FCS/3 days, read-out: Test Compound IC50 Value in Cell Lines): 1.8 µM; IC50 (MMRU; [12]): < 1.25 µM; IC50 (HT29; [14]): < 1.25 µM; IC50 (U118MG; [16]): 1.3 µM; IC50 (SK-OV-3): > 1 µM; IC50 (3T3): > 1 µM |
| COc1ccc(C(=O)N2Cc3ccccc3C(c3ccccc3Cl)c3ccccc32)cc1 (centres unmarked) [Compound 27] | 2.2 | > 10 | 3 | 0.2 | 0.9 | 0.5 | < 1.25 | 0.3 | 0.4 | < 1.25 | > 1 | 0.7 | 0.2 | 0.4 | 0.4 | > 1 | 0.4 | > 1 | > 1 | > 1 | IC50 (MDA-MB-23; [4]): > 1 µM; IC50 (A549; [7]): 1.1 µM; IC50 (A549; [8]): < 1.25 µM; IC50 (MMRU; [12]): < 1.25 µM; IC50 (HT29; [14]): < 1.25 µM; IC50 (U118MG; [16]): 1.9 µM; IC50 (SK-OV-3): > 1 µM; IC50 (3T3): > 1 µM |
| COC(=O)N1Cc2ccccc2C(c2ccccc2Cl)c2ccccc21 (centres unmarked) [Compound 9, N-methoxycarbonyl-11-(2′-chlorophenyl)-5,6-dihydro-11H-dibenz[b,e]azepine] | 2.1 | 0.085 to 0.093 | 97.3 | – | – | – | – | – | – | – | – | – | – | – | – | – | – | – | – | – | melting point: 159 to 161 °C |
| O=C(c1ccc([N+](=O)[O-])cc1)N1Cc2ccccc2C(c2ccccc2)c2ccccc21 (centres unmarked) [Compound 20] | 1.7 | > 10 | 13.6 | 0.6 | 0.9 | > 1 | – | 0.7 | 0.9 | – | > 1 | 0.9 | 0.5 | 0.7 | 0.9 | > 1 | 0.9 | > 1 | > 1 | 0.9 | IC50 (MDA-MB-23; [4]): > 1 µM; IC50 (A549; [7]): > 1 µM; IC50 (SK-OV-3): > 1 µM; IC50 (3T3): > 1 µM |
| O=C(Oc1ccccc1)N1Cc2ccccc2C(c2ccccc2)c2ccccc21 (centres unmarked) [Compound 14, N-phenoxycarbonyl-11-phenyl-5,6-dihydro-11H-dibenz[b,e]azepine] | 0.04 | > 10 | 14.8 | – | – | – | – | – | – | – | – | – | – | – | – | – | – | – | – | – | IC50 (A549; A549, A549, 5% FCS/2 days, read-out: Test Compound IC50 Value in Cell Lines): > 10 µM; IC50 (MMRU; MMRU, 5% FCS/2 days, read-out: Test Compound IC50 Value in Cell Lines): > 10 µM; IC50 (HT29; HT-29, HT29, 5% FCS/2 days, read-out: Test Compound IC50 Value in Cell Lines): 10 µM; melting point: 155 to 165 °C |
| COc1ccc2c(c1)CN(C(=O)c1ccc([N+](=O)[O-])cc1)c1ccc(Cl)cc1C2c1ccccc1Cl (centres unmarked) [Compound 30] | 0.6 | > 10 | 14.6 | 0.5 | 0.7 | 1.3 | 1.6 | 0.5 | 0.9 | < 1.25 | > 1 | 0.6 | 0.5 | 0.6 | 0.5 | > 1 | 0.8 | > 1 | > 1 | > 1 | IC50 (MDA-MB-23; [4]): 0.9 µM; IC50 (A549; [7]): 1.5 µM; IC50 (A549; [8]): 1.7 µM; IC50 (MMRU; [12]): < 1.25 µM; IC50 (HT29; [14]): < 1.25 µM; IC50 (U118MG; [16]): < 1.25 µM; IC50 (SK-OV-3): > 1 µM; IC50 (3T3): > 1 µM |
